Where two headings read alike, the source gives them in different places. Where only a bound is given, the exact number is not on record here.

We go through two molecules from US8987284B2, “Phosphorus containing quinazoline compounds and methods of use” (Newgen Therapeutics, Inc., priority 2009, dated 2015).

One series has as its target T1, EGFR kinase (Homo sapiens, UniProt P00533).
T1 construct: purchased Invitrogen PV3872
Description: Kinase assay for EGFR (TR-FRET LanthaScreen). The series is classed as biochemical. The settings on record: % inhibition at 100 nM or IC50 (nM). The method, then: The extent to which the compounds of the present invention modulate EGFR kinase activity can be determined using time-resolved Fret (TR-FRET) assay (LanthaScreen® kinase activity assay, from Invitrogen). The assay employs EGFR kinase (PV3872, Invitrogen), Tb-Py20 antibody (PV3552, Invitrogen) and fluorescein-poly GT (PV3610, In vitrogen)
The assay is performed in a Black 384-well plate (available from Corning). EGFR kinase (is diluted in TR-FRET Dilution Buffer (PV3189, InVitrogen) at concentration of 0.4 ug/ml as stock solution, and then 2-fold serial diluted. Addition of 1 mM ATP initiated the reaction, and the reaction is incubated for 1 h reaction at room temperature. 10 μL of the Tb-antibody (from Invitrogen)+EDTA (from Invitrogen) solution prepared was added to each well of the assay plate and mix briefly, and incubated for 30 min. The signal is monitored by using M5 microplate reader (Ex=332 nm, Em=488 nm and 518 nm). Each compound is tested in duplicate wells. EGFR without compound is used as control. Staurosporine (available from Sigma) is used as positive control compound. Inhibition was calculated as percentage of the EGFR activity (without compound)
A general note: In TR-FRET formats the signal depends on donor and acceptor labels being close together.

The nature of series [1]: Pharmacokinetic study in dog. The series is classed as in vivo, Beagle dogs. On the set-up: clearance: unit not given here. To be noted: for AUC(0-inf): read-out: AUC0-inf-obs; for half-life: read-out: T½ (converted). The method, then: (§1) The dog PK protocol is shown here, while PK study protocol of mouse and rat are similar to dog. Beagle dogs of this study were 6-8 month old and weighed 8 to 10 kg. Example 4 was dissolved in 2% DMA and 98% (40% HP-β-CD in deionized water) to yield concentration at 2 mg/mL for both intravenous (IV, a bolus injection via the lateral tail vein) and oral (PO, via oral gavage) administrations. Blood samples (approximately 1 ml) was collected via cephalic into tubes containing EDTA-K3 anticoagulant pre-dose and post-dose at 5 min, 15 min, 30 min, 1 h, 2 h, 4 h, 6 h, 8 h and 24 h. Blood samples were centrifuged at approximately 8000 rpm for 6 minutes at 2-8° C. and the resulting plasma were separated, labeled and stored frozen at approximately −80° C. Plasma samples analysis was performed by means of LC-MS/MS. The analytical results were confirmed using quality control samples for intra-assay variation.

The nature of series [2]: Pharmacokinetic study in rat. The series is classed as in vivo. Also noted: clearance: unit not given here. To be noted: for AUC(0-inf): read-out: AUC0-inf-obs; for half-life: read-out: T½ (converted). Here is the method: as §1
The nature of series [3]: Pharmacokinetic study in mouse. On the set-up: clearance: unit not given here. Format: in vivo. The settings on record: for AUC(0-inf): read-out: AUC0-inf-obs; for half-life: read-out: T½ (converted). Here is the method:
as §1

Series [4] is described as follows: Body weight change of NCI-N87 xenograft mice. Format: in vivo, Balb/c nude mice. To be noted: po. Here is the method: (§2) NCI-N87 cells were purchased from ATCC, and were cultured in RPMI1640+10% FBS+1% P/S antibiotics. Balb/c nude mice were male, 6-8 week old, and weighed 18^±2 g. The cells were implanted subcutaneously into the nude mice (right flank) with 5.0×10^6 cells in 0.1 ml PBS. When the tumor size reached a volume of 200 (150-200) mm^3, the tumor-bearing nude mice derived from NCI-N87 cells were randomly assigned into four groups (10 mice/group). All groups were dosed oral, BID. One group were dosed with vehicle, one group with Lapatinib (75 mg/kg of free base, in the form of ditosylate monoydrate), and the rest two groups with Example 4 (50, 100 mg/kg, p.o. Bid, respectively). The administration period lasted 4 weeks. The tumor volume were measured twice a week, and the body weight were measured immediately before measuring the tumor volume throughout the whole study. […] (See FIG. 1).

The subject of a further series is NCI-N87 xenograft. Description: Anticancer effect against NCI-N87 xenograft. The series is classed as in vivo, Balb/c nude mice. Here is the method:
as §2, with “study. On day 11 after initiation of the treatment, the dosing of Example 4 at 100 mg/kg was suspended, and the dosing of the group was resumed on day 15 at a reduced dose of 75 mg/Kg.” for “study.”

In another series the test system is BT474 cells. Kind of series: Cell proliferation inhibition assay for BT474 (CCK-8). Format: cell-based. To be noted: Homo sapiens, BT-474; 72 h, 8 points. The method, then: Human breast cancer BT474 cells was cultured in low glucose DMEM (Life Technologies 12320-032) containing 10% fetal bovine serum (FBS) at 37° C. in a humidified 10% CO2, 90% air incubator. Cells were harvested using trypsin/EDTA, counted using a haemocytometer, and plated 10000 cell/well in a 96-well clear tissue culture plate. The cells were incubated for 24 h at 37° C. to allow adherence. A serials of concentrations of each compound (ranging from 30 uM to […], 5-fold dilution) in 96-well plate, and incubated for 72 h. Each concentration was tested in triplicate wells. During the cell proliferation assay, BT474 cells were cultured in low-glucose DMEM containing 5% FBS, 50 ug/ml gentamicin, and 0.3% v/v DMSO. The culture medium was removed via aspiration, and the cell viability was detected by using CCK-8 cell proliferation kit.

For series [5] the following is noted: mouse; cited from earlier work.
The conditions of series [6]: rat; cited from earlier work.
The conditions of series [7]: dog; cited from earlier work.
The mark [8] stands for this setting: plasma, IV, 2 mg/Kg, read-out: Vz.

T1 sequence (P00533 25-1210): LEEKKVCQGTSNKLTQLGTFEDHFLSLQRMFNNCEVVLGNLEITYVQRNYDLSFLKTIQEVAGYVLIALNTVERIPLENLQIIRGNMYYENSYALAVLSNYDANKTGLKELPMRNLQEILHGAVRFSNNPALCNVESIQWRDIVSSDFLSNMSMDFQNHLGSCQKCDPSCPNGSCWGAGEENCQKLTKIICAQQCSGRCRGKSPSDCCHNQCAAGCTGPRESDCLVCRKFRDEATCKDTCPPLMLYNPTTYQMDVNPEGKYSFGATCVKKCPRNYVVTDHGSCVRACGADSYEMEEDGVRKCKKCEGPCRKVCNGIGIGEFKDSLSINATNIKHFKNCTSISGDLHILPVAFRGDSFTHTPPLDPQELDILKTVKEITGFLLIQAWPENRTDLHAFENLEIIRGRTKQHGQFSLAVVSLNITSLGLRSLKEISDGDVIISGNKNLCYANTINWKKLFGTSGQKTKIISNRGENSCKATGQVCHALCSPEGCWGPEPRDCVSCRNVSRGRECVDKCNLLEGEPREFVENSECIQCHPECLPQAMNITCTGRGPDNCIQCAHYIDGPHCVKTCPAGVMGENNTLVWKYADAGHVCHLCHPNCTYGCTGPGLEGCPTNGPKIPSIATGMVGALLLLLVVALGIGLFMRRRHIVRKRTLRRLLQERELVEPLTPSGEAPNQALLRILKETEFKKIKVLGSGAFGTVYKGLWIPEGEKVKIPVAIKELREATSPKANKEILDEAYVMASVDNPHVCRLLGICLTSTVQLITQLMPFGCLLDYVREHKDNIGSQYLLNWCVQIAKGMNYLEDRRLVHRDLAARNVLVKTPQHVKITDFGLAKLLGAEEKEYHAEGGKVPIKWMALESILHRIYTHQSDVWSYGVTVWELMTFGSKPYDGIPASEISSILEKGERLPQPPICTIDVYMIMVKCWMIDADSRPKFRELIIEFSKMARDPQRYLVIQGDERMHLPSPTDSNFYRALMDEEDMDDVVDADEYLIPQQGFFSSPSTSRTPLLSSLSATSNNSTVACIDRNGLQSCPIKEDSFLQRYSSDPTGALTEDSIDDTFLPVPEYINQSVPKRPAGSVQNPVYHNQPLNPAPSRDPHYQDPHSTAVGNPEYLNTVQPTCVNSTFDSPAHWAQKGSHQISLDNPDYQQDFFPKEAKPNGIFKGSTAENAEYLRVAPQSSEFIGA

As a reminder, the AUC(0-t) is exposure summed from dosing to a finite time, without extrapolation to infinity. In general, Cmax refers to the maximum level reached in the sampled fluid or tissue. Broadly, the IC50 is the concentration that inhibits the measured activity by half. `CP1(=O)CCN(CC#Cc2ccc3ncnc(Nc4ccc(OCc5cccc(F)c5)c(Cl)c4)c3c2)CC1` [Example 4, N-(3-chloro-4-(3-fluorobenzyloxy)phenyl)-6-(3-(4-methyl-1,4-azaphosphino-1-yl)prop-1-ynyl)quinazolin-4-amine]: on EGFR kinase, the “EGFR inhibition inhibit % at 100 nM or IC50 (nM)” value was “++ (>50% inhibition at 100 nM, or IC50 <100 nM for EGFR or ErbB2 kinases)”. Besides, the F in [1] (PO, 10 mg/Kg) is listed as 100%; in [2] (PO, 10 mg/Kg), 89.6%; in series [3] (PO, 10 mg/Kg), 36%. Also, the AUC(0-t) was 1480 ng·h/mL in [1] (beagle, plasma, IV, 2 mg/Kg); 7640 ng·h/mL in series [1] (beagle, plasma, PO, 10 mg/Kg); 2130 ng·h/mL in series [2] (plasma, IV, 2 mg/Kg); 9700 ng·h/mL in [2] (plasma, PO, 10 mg/Kg); 5070 ng·h/mL in series [3] (plasma, IV, 2 mg/Kg); 8830 ng·h/mL in series [3] (plasma, PO, 10 mg/Kg). Moreover, the Cmax in series [1] (beagle, plasma, IV, 2 mg/Kg) worked out at 1150 ng/mL; in series [1] (beagle, plasma, PO, 10 mg/Kg) it was 2380 ng/mL; in series [2] (plasma, IV, 2 mg/Kg), 1570 ng/mL; in [2] (plasma, PO, 10 mg/Kg), 1800 ng/mL; in series [3] (plasma, IV, 2 mg/Kg), 1520 ng/mL; in series [3] (plasma, PO, 10 mg/Kg), 2840 ng/mL. The clearance in series [1] (beagle, plasma, IV, 2 mg/Kg) is 22.3; in [2] (plasma, IV, 2 mg/Kg), 15.3; in [3] (plasma, IV, 2 mg/Kg) it was 6.5. The AUC(0-inf) in series [1] (beagle, plasma, IV, 2 mg/Kg) was 1490 ng·h/mL; in series [1] (beagle, plasma, PO, 10 mg/Kg) it was 7720 ng·h/mL; in series [2] (plasma, IV, 2 mg/Kg) it was 2180 ng·h/mL; in series [2] (plasma, PO, 10 mg/Kg) it was 9780 ng·h/mL; in series [3] (plasma, IV, 2 mg/Kg), 5080 ng·h/mL; in series [3] (plasma, PO, 10 mg/Kg) it was 9060 ng·h/mL. The half-life in [1] (beagle, plasma, IV, 2 mg/Kg) was 2.46 h; in series [1] (beagle, plasma, PO, 10 mg/Kg), 3.8 h; in [2] (plasma, IV, 2 mg/Kg) it was 19.9 h; in series [2] (plasma, PO, 10 mg/Kg) it was 11.5 h; in series [3] (plasma, IV, 2 mg/Kg), 0.59 h; in series [3] (plasma, PO, 10 mg/Kg) it was 1.41 h. Further, the Vd in series [1] (beagle, plasma, IV, 2 mg/Kg, read-out: Vz) came out at 1.44 L; in series [2] (setting [8]), 7.92 L; in series [3] (setting [8]) it was 0.33 L. Further, the “body weight loss (average)” value in [4] (100 mg/Kg, bid, day 10) was 16.9%. Also, in series [4] (suspension for 3 days, resumed at 75 mg/kg), the “body weight after dosing suspension and resumption” value was “recovered and remained normal”. The “tumor growth inhibition rate” value in the series with NCI-N87 xenograft (50 mg/Kg, p.o. BID, 4 weeks) is 85%; in the series on NCI-N87 xenograft (100/75 mg/Kg, p.o. BID, 4 weeks (suspended, resumed at 75 mg/Kg)), 88%. In addition, the IC50 in the series on BT474 cells was below 100 nM.
As to `CS(=O)(=O)CCNCc1ccc(-c2ccc3ncnc(Nc4ccc(OCc5cccc(F)c5)c(Cl)c4)c3c2)o1` [lapatinib, Lapatinib], the “oral bioavailability (F)” value is reported as 32% in [5], 29% in series [6] and 63% in [7]. For the same molecule, the “tumor growth inhibition rate” value with NCI-N87 xenograft (75 mg/Kg of free base, oral BID, 4 weeks) is reported as 48%.
